Read-outs that look alike come from different tables or passages of the source.
Key:
[1] = tested on: Myotonic Dystrophy 1 affected patient fibroblasts (Coriel GM04602; 1600 CTG repeats); assay: DM1 foci reduction assay (EC50 assay; CAG10-Cy3 FISH, foci per nucleus); format: cell-based
Outline: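 GM04602 DM1 patient fibroblasts (1600 CTG repeats) seeded 24 h, then treated 48 h at 37 °C with an 8-point 1:3 dose series from 3 μM. Cells PFA-fixed, ethanol-permeabilized and hybridized overnight with 5 nM CAG10-Cy3 probe, DAPI counterstained. Imaged at 20×, 4 fields per well, as average foci per nucleus.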

F35T cells = assay: Foci reduction in FECD (CAG10-Cy3 FISH, foci per nucleus); format: cell-based
Outline: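 F35T cells, 5000 per well, were treated for 48 h at 37 °C, 5% CO2 in an 8-point dose response. Cells were then fixed in 4% PFA, permeabilized in 70% ethanol and hybridized overnight at 37 °C with a CAG10-Cy3 probe in 30% formamide/2×SSC. After DAPI staining, imaging gave foci per nucleus.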

[2] = Homo sapiens, Fibroblast; DM1 patient fibroblasts, 48 h treatment, foci per nucleus; read-out: DM1 EC50, 48 h
[3] = F35T cells, 48 h treatment, foci per nucleus; read-out: FECD EC50, 48 h

| SMILES | EC50 [1, 2] [µM] | EC50 (F35T cells; [3]) [µM] | EC50 ([1]; Homo sapiens, Fibroblast; DM1 patient fibroblasts, foci per nucleus, 48 h treatment; read-out: DM1 EC50, 48 h) [µM] | EC50 (F35T cells; F35T cells, foci per nucleus, 48 h treatment; read-out: FECD EC50, 48 h) [µM] |
| --- | --- | --- | --- | --- |
| CC(=O)N1CCC(C#CC#CC2CCN(C(=O)CCNC(=O)c3nc(NC(=O)c4cc(NC(=O)CCNC(=O)c5nc(NC(=O)CCCNC(=O)c6cc(NC(=O)c7nc(NC(=O)CCNC(=O)c8cc(NC(=O)c9nccn9C)cn8C)cn7C)cn6CCCCN)cn5C)cn4C)cn3C)CC2)CC1 [Compound B-280] | < 0.1 | < 0.1 | – | – |
| CCCNC(=O)CCNC(=O)c1nc(NC(=O)c2cc(NC(=O)CCNC(=O)c3nc(NC(=O)CCCNC(=O)c4cc(NC(=O)c5nc(NC(=O)CCNC(=O)c6cc(NC(=O)c7nccn7C)cn6C)cn5C)cn4CCCCNC(C)=O)cn3C)cn2C)cn1C [Compound B-282] | 0.1 to 0.5 | < 0.1 | – | – |
| Cn1cc(NC(=O)c2nc(NC(=O)CCNC(=O)c3cc(NC(=O)c4nccn4C)cn3C)cn2C)cc1C(=O)NCCCC(=O)Nc1cn(C)c(C(=O)NCCC(=O)Nc2cc(C(=O)Nc3cn(C)c(C(=O)NCCC(=O)NCCCCC(=O)N[C@@H](CCCNC(=N)N)C(=O)N[C@@H](CCCNC(=N)N)C(=O)NCCCCN=[N+]=[N-])n3)n(C)c2)n1 [Compound B-154] | > 1 | 0.1 to 0.5 | – | – |
| CCCCCNC(=O)CCNC(=O)c1nc(NC(=O)c2cc(NC(=O)CCNC(=O)c3nc(NC(=O)CCCNC(=O)c4cc(NC(=O)c5nc(NC(=O)CCNC(=O)c6cc(NC(=O)c7nccn7C)cn6C)cn5C)cn4C)cn3C)cn2C)cn1C [Compound B-39] | < 0.1 | < 0.1 | – | – |
| COC(=O)c1cccc(NCCCCNC(=O)c2nc(NC(=O)c3cc(NC(=O)CCNC(=O)c4nc(NC(=O)CCCNC(=O)c5cc(NC(=O)c6nc(NC(=O)CCNC(=O)c7cc(NC(=O)c8nccn8C)cn7C)cn6C)cn5C)cn4C)cn3C)cn2C)c1 [Compound B-343] | < 0.1 | < 0.1 | – | – |
| CC(=O)N1CCC(C#CC#CC2CCN(C(=O)CCNC(=O)c3nc(NC(=O)c4cc(NC(=O)CCNC(=O)c5nc(NC(=O)CCCNC(=O)c6cc(NC(=O)c7nc(NC(=O)CCNC(=O)c8cc(NC(=O)c9nccn9C)cn8C)cn7C)cn6CCOCCN)cn5C)cn4C)cn3C)CC2)CC1 [Compound B-296] | < 0.1 | < 0.1 | – | – |
| Cn1cc(NC(=O)c2nc(NC(=O)CCNC(=O)c3cc(NC(=O)c4nc(NC(=O)[C@H](N)CCNC(=O)c5cc(NC(=O)c6nc(NC(=O)CCNC(=O)c7cc(NC(=O)c8nccn8C)cn7C)cn6C)cn5C)cn4C)cn3C)cn2C)cc1C(=O)NCCO [Compound B-8] | 0.5 to 1 | > 1 | – | – |
| Cn1cc(NC(=O)c2nc(NC(=O)CCNC(=O)c3cc(NC(=O)c4nccn4C)cn3C)cn2C)cc1C(=O)NCCCC(=O)Nc1cn(C)c(C(=O)NCCC(=O)Nc2cc(C(=O)Nc3cn(C)c(C(=O)NCCC(=O)N4CCC(N5CCN(C(=O)OC(C)(C)C)CC5)CC4)n3)n(C)c2)n1 [Compound B-30] | 0.1 to 0.5 | < 0.1 | – | – |
| Cn1cc(NC(=O)c2nc(NC(=O)CCNC(=O)c3cc(NC(=O)c4nccn4C)cn3C)cn2C)cc1C(=O)NCCCC(=O)Nc1cn(C)c(C(=O)NCCC(=O)Nc2cc(C(=O)Nc3cn(C)c(C(=O)NCCC(=O)NCCOCCOc4ccc(NC(=O)OCc5ccccc5)cc4)n3)n(C)c2)n1 [Compound B-15] | < 0.1 | < 0.1 | – | – |
| Cn1cc(NC(=O)c2nc(NC(=O)CCNC(=O)c3cc(NC(=O)c4nccn4C)cn3C)cn2C)cc1C(=O)NCCCC(=O)Nc1cn(C)c(C(=O)NCCC(=O)Nc2cc(C(=O)Nc3cn(C)c(C(=O)NCCC(=O)N[C@@H](CCCNC(=N)N)C(=O)N[C@@H](CCCNC(=N)N)C(=O)N[C@@H](CCCNC(=N)N)C(=O)N[C@@H](CCCNC(=N)N)C(=O)NCCCCN=[N+]=[N-])n3)n(C)c2)n1 [Compound B-151] | > 1 | 0.1 to 0.5 | – | – |
| CCCNC(=O)CCNC(=O)c1nc(NC(=O)c2cc(NC(=O)CCNC(=O)c3nc(NC(=O)CCCNC(=O)c4cc(NC(=O)c5nc(NC(=O)CCNC(=O)c6cc(NC(=O)c7nccn7C)cn6C)cn5C)cn4C(C)C)cn3C)cn2C)cn1C [Compound B-319] | 0.1 to 0.5 | < 0.1 | – | – |
| CC(=O)N1CCC(C#CC#CC2CCN(C(=O)CCNC(=O)c3nc(NC(=O)c4cc(NC(=O)CCNC(=O)c5nc(NC(=O)CCCNC(=O)c6cc(NC(=O)c7nc(NC(=O)CCNC(=O)c8cc(NC(=O)c9nccn9C)cn8C)cn7C)cn6C)cn5C)cn4C)cn3C)CC2)CC1 [Compound B-379] | 0.1 to 0.5 | < 0.1 | – | – |
| CCCNC(=O)CCNC(=O)c1nc(NC(=O)c2cc(NC(=O)CCNC(=O)c3nc(NC(=O)CCCNC(=O)c4cc(NC(=O)c5nc(NC(=O)CCNC(=O)c6cc(NC(=O)c7nccn7C)cn6C)cn5C)cn4CC)cn3C)cn2C)cn1C [Compound B-318] | 0.1 to 0.5 | < 0.1 | – | – |
| CCCCCCn1cc(NC(=O)c2nc(NC(=O)CCNC(=O)c3cc(NC(=O)c4nccn4C)cn3C)cn2C)cc1C(=O)NCCCC(=O)Nc1cn(C)c(C(=O)NCCC(=O)Nc2cc(C(=O)Nc3cn(C)c(C(=O)NCCC(=O)NCCC)n3)n(C)c2)n1 [Compound B-323] | < 0.1 | < 0.1 | – | – |
| COCCOCCOCCOCCN(CCCCCn1cc(NC(=O)c2nc(NC(=O)CCNC(=O)c3cc(NC(=O)c4nccn4C)cn3C)cn2C)cc1C(=O)NCCCC(=O)Nc1cn(C)c(C(=O)NCCC(=O)Nc2cc(C(=O)Nc3cn(C)c(C(=O)NCCC(=O)N4CCC(C#CC#CC5CCNCC5)CC4)n3)n(C)c2)n1)CCOCCOCCOCCOC [Compound B-258] | 0.5 to 1 | 0.5 to 1 | – | – |
| Cn1cc(NC(=O)c2nc(NC(=O)CCNC(=O)c3cc(NC(=O)c4nccn4C)cn3C)cn2C)cc1C(=O)NCCCC(=O)Nc1cn(C)c(C(=O)NCCC(=O)Nc2cc(C(=O)Nc3cn(C)c(C(=O)NCCC(=O)NCC#CC#Cc4ccc(N)cc4)n3)n(C)c2)n1 [Compound B-132] | < 0.1 | < 0.1 | – | – |
| CCCCCNC(=O)c1nc(NC(=O)c2cc(NC(=O)CCNC(=O)c3nc(NC(=O)CCCNC(=O)c4cc(NC(=O)c5nc(NC(=O)CCNC(=O)c6cc(NC(=O)c7nccn7C)cn6C)cn5C)cn4CCCCCCN=[N+]=[N-])cn3C)cn2C)cn1C [Compound B-232] | < 0.1 | < 0.1 | – | – |
| Cn1cc(NC(=O)c2nccn2C)cc1C(=O)NCCC(=O)Nc1cn(C)c(C(=O)Nc2cc(C(=O)NCCCC(=O)Nc3cn(C)c(C(=O)NCCC(=O)Nc4cc(C(=O)Nc5cn(C)c(C(=O)NCCC(=O)N6CCC(C#CC#CC7CCNCC7)CC6)n5)n(C)c4)n3)n(CCCCCCN)c2)n1 [Compound B-256] | 0.1 to 0.5 | 0.1 to 0.5 | – | – |
| CCCN(CCC)C(=O)CCNC(=O)c1nc(NC(=O)c2cc(NC(=O)CCNC(=O)c3nc(NC(=O)CCCNC(=O)c4cc(NC(=O)c5nc(NC(=O)CCNC(=O)c6cc(NC(=O)c7nccn7C)cn6C)cn5C)cn4C)cn3C)cn2C)cn1C [Compound B-50] | 0.1 to 0.5 | < 0.1 | – | – |
| CN1CCC(C#CC#CC2CCN(CCOCCOCCOCCNC(=O)CCNC(=O)c3nc(NC(=O)c4cc(NC(=O)CCNC(=O)c5nc(NC(=O)CCCNC(=O)c6cc(NC(=O)c7nc(NC(=O)CCNC(=O)c8cc(NC(=O)c9nccn9C)cn8C)cn7C)cn6C)cn5C)cn4C)cn3C)CC2)CC1 [Compound B-125] | 0.1 to 0.5 | 0.1 to 0.5 | – | – |
| CCCNC(=O)CCNC(=O)c1nc(NC(=O)c2cc(NC(=O)CCNC(=O)c3nc(NC(=O)[C@@H](CCNC(=O)c4cc(NC(=O)c5nc(NC(=O)CCNC(=O)c6cc(NC(=O)c7nccn7C)cn6C)cn5C)cn4C)NC(C)=O)cn3C)cn2C)cn1C [Compound B-5] | < 0.1 | 0.1 to 0.5 | – | – |
| Cn1cc(NC(=O)c2nc(NC(=O)CCNC(=O)c3cc(NC(=O)c4nccn4C)cn3C)cn2C)cc1C(=O)NCCCC(=O)Nc1cn(C)c(C(=O)NCCC(=O)Nc2cc(C(=O)Nc3cn(C)c(C(=O)NCCC(=O)N4CCN(C5CCNCC5)CC4)n3)n(C)c2)n1 [Compound B-117] | 0.1 to 0.5 | 0.5 to 1 | – | – |
| Cn1cc(NC(=O)c2nc(NC(=O)CCNC(=O)c3cc(NC(=O)c4nccn4C)cn3C)cn2C)cc1C(=O)NCCCC(=O)Nc1cn(C)c(C(=O)NCCC(=O)Nc2cc(C(=O)Nc3cn(C)c(C(=O)NCCc4cnc(CNC(=O)OCc5ccccc5)[nH]4)n3)n(C)c2)n1 [Compound B-202] | 0.1 to 0.5 | < 0.1 | – | – |
| Cn1cc(NC(=O)c2nc(NC(=O)CCNC(=O)c3cc(NC(=O)c4nccn4C)cn3C)cn2C)cc1C(=O)NCCCC(=O)Nc1cn(C)c(C(=O)NCCC(=O)Nc2cc(C(=O)Nc3cn(C)c(C(=O)NCCC(=O)NC(CO)CO)n3)n(C)c2)n1 [Compound B-333] | 0.5 to 1 | 0.1 to 0.5 | – | – |
| CCCNC(=O)CCNC(=O)c1nc(NC(=O)c2cc(NC(=O)CCNC(=O)c3nc(NC(=O)CCCNC(=O)c4cc(NC(=O)c5nc(NC(=O)CCNC(=O)c6cc(NC(=O)c7nccn7C)cn6C)cn5C)cn4CCOCCN)cn3C)cn2C)cn1C [Compound B-295] | 0.1 to 0.5 | 0.1 to 0.5 | – | – |
| CCCNC(=O)CCNC(=O)c1nc(NC(=O)c2cc(NC(=O)CCNC(=O)c3nc(NC(=O)CCCNC(=O)c4cc(NC(=O)c5nc(NC(=O)CCNC(=O)c6cc(NC(=O)c7nccn7C)cn6C)cn5C)cn4CCCOC(=O)c4ccccc4)cn3C)cn2C)cn1C [Compound B-432] | – | – | < 0.1 | < 0.1 |

Source: patent US20250368628A1, “METHODS AND COMPOUNDS FOR MODULATING INHERITED GENETIC DISEASES” (Design Therapeutics, Inc., priority 2022, published 2025)
